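48-hour exposure; five concentrations; linearly interpolated endpoints. TGI: concentration producing complete growth inhibition.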

In the first assay the test system is MCF7 breast. Kind of assay: inhibition of tumour cell growth, NCI panel, 48 h.
Compound `CCNC(=O)Cc1nc2c(N)ncnc2n1C1OC(CO)C(O)C1O` (configuration not stated) displayed a TGI of 86.5 µM.

For `Cc1cc(C(=O)CCCCOc2ccc(C3=NCCO3)cc2)c(C)n1C`, the TGI is over 100 µM.

`[O-][n+]1ccccc1Sc1nc(Sc2cccc[n+]2[O-])nc(Sc2cccc[n+]2[O-])n1` came in with a TGI of 2.47 µM.

In the next assay the test system is SNB-19 CNS. Description: inhibition of tumour cell growth, NCI panel, 48 h.
`NS(=O)(=O)c1cc2c(cc1Cl)NC(CCC(=O)O)=NS2(=O)=O`: the TGI was over 100 µM.

In turn, `CCOC(=O)c1nc2c(nc1C(=O)OCC)C(=O)c1ccccc1C2=O` had a TGI of 3.59 µM.

Regarding `Cc1ccc2c(c1)C(=O)C1(Cc3ccccc3C1=O)C2` (configuration not stated), the TGI is over 100 µM.

The compound `CC(=O)Nc1nc(C#N)[nH]c1C#N` registered a TGI of over 100 µM.

With `O=C(O)/C=C(/C(=O)O)C12CCN3CC4=CCOC5CC(=O)NC1C5C4CC32` (configuration not stated), the TGI was over 100 µM.

Compound `Cc1c(S(=O)(=O)c2ccccc2)c(N)n(CCN(C)C)c1C` showed a TGI of over 100 µM.

In turn, `CS(=O)c1ncc2c(n1)-c1ccccc1OC2` (configuration not stated) came in with a TGI of over 100 µM.

With `O=[N+]([O-])c1ccc(Oc2c(Cl)cc(S(=O)(=O)/N=C(\NO)Nc3ccc(Cl)cc3)cc2Cl)cc1`, the TGI came out at 29.2 µM.

`Cc1cc(N(CCOS(C)(=O)=O)CCOS(C)(=O)=O)ccc1C=O` registered a TGI of over 100 µM.

The compound `O=c1[nH]c(=O)n(C2OC(CO)C(O)C2O)c2nc(-c3ccc(-c4ccccc4)cc3)cnc12` (configuration not stated) displayed a TGI of over 100 µM.

For `CN1CSC(=S)N(c2c3ccccc3nc3ccc(Br)cc23)C1`, the TGI amounted to 26 µM.

In turn, `O=C(O)c1ccccc1CC1Cc2ccccc2C1=O` (configuration not stated) showed a TGI of over 100 µM.

On to `NS(=O)(=O)c1cc(Cl)c(NC(=S)NC(=O)Nc2ccc(Cl)c(Cl)c2)c(Cl)c1`, for which the TGI was over 100 µM.

In the case of `Cc1cn(C2CC(O)C(CO)O2)c(=O)[nH]c1=O` (configuration not stated), the TGI was over 2850 µM.

The compound `CCOP(=O)(OCC)C(c1ccc(F)cc1)N(C(=O)NC(F)(F)F)c1ccc(OC)cc1` (configuration not stated) showed a TGI of over 100 µM.

Regarding `CSC(=S)N/N=C(\C)c1ccc(S(=O)(=O)N(C)c2ccccc2)cc1`, the TGI was over 100 µM.

In turn, `O=C1c2ccccc2-c2c1c(-c1ccc(F)cc1)nc1ccc3ccccc3c21` displayed a TGI of over 100 µM.

In turn, `COc1ccc2c(c1)/C(=C\c1c(Cl)nc3sc(C)cn13)C(=O)N2` displayed a TGI of 13.4 µM.

In the case of `CCOC(=O)c1ccc(NCC#CCN2CCOCC2)cc1`, the TGI is over 100 µM.

Regarding `COc1ccc(-c2nc(SCC(=O)N/N=C/c3ccc(N(C)C)cc3)[nH]c2-c2ccc(OC)cc2)cc1`, the TGI is over 100 µM.

In turn, `COc1cccc2c(=O)oc(-c3ccc(C(C)(C)C)cc3)nc12` had a TGI of over 100 µM.

`COC(=O)C1CCC(=O)N1C(c1ccc(OC)cc1)c1ccc2c(c1)OCO2` (configuration not stated) gave a TGI of over 100 µM.

As to `CCOC(=O)c1cn2c(nc1=O)N[C@H]1CCCC[C@@H]12`, the TGI is over 100 µM.

Compound `CCC1(CC)C(=O)NN(C(=O)c2ccccc2)C1=O` came in with a TGI of over 100 µM.

`CCNC(=O)Cc1nc2c(N)ncnc2n1C1OC(CO)C(O)C1O` (configuration not stated) had a TGI of over 100 µM.

The compound `Cc1cc(C(=O)CCCCOc2ccc(C3=NCCO3)cc2)c(C)n1C` gave a TGI of over 100 µM.

The compound `[O-][n+]1ccccc1Sc1nc(Sc2cccc[n+]2[O-])nc(Sc2cccc[n+]2[O-])n1` showed a TGI of 26.1 µM.

Another assay relates to EKVX NSCLC. Kind of assay: inhibition of tumour cell growth, NCI panel, 48 h.
As for `NS(=O)(=O)c1cc2c(cc1Cl)NC(CCC(=O)O)=NS2(=O)=O`, the TGI was over 100 µM.

Consider `CCOC(=O)c1nc2c(nc1C(=O)OCC)C(=O)c1ccccc1C2=O`, for which the TGI stood at 3.5 µM.

`Cc1ccc2c(c1)C(=O)C1(Cc3ccccc3C1=O)C2` (configuration not stated) registered a TGI of over 100 µM.

As to `CC(=O)Nc1nc(C#N)[nH]c1C#N`, the TGI was over 100 µM.

Turning to `O=C(O)/C=C(/C(=O)O)C12CCN3CC4=CCOC5CC(=O)NC1C5C4CC32` (configuration not stated), the TGI was over 100 µM.

The compound `Cc1c(S(=O)(=O)c2ccccc2)c(N)n(CCN(C)C)c1C` displayed a TGI of over 100 µM.

As to `CS(=O)c1ncc2c(n1)-c1ccccc1OC2` (configuration not stated), the TGI is over 100 µM.

Regarding `O=[N+]([O-])c1ccc(Oc2c(Cl)cc(S(=O)(=O)/N=C(\NO)Nc3ccc(Cl)cc3)cc2Cl)cc1`, the TGI stood at 24.9 µM.

Turning to `Cc1cc(N(CCOS(C)(=O)=O)CCOS(C)(=O)=O)ccc1C=O`, the TGI stood at 22.9 µM.

Compound `O=c1[nH]c(=O)n(C2OC(CO)C(O)C2O)c2nc(-c3ccc(-c4ccccc4)cc3)cnc12` (configuration not stated) displayed a TGI of over 100 µM.

`CN1CSC(=S)N(c2c3ccccc3nc3ccc(Br)cc23)C1` displayed a TGI of 33.1 µM.

As for `O=C(O)c1ccccc1CC1Cc2ccccc2C1=O` (configuration not stated), the TGI is over 100 µM.

As for `NS(=O)(=O)c1cc(Cl)c(NC(=S)NC(=O)Nc2ccc(Cl)c(Cl)c2)c(Cl)c1`, the TGI was over 100 µM.

In turn, `Cc1cn(C2CC(O)C(CO)O2)c(=O)[nH]c1=O` (configuration not stated) had a TGI of 4950 µM.

The compound `CCOP(=O)(OCC)C(c1ccc(F)cc1)N(C(=O)NC(F)(F)F)c1ccc(OC)cc1` (configuration not stated) displayed a TGI of over 100 µM.

Compound `CSC(=S)N/N=C(\C)c1ccc(S(=O)(=O)N(C)c2ccccc2)cc1` came in with a TGI of over 100 µM.

The compound `O=C1c2ccccc2-c2c1c(-c1ccc(F)cc1)nc1ccc3ccccc3c21` displayed a TGI of over 100 µM.

`COc1ccc2c(c1)/C(=C\c1c(Cl)nc3sc(C)cn13)C(=O)N2` yielded a TGI of 21.2 µM.

Compound `CCOC(=O)c1ccc(NCC#CCN2CCOCC2)cc1` gave a TGI of over 100 µM.

Regarding `COc1ccc(-c2nc(SCC(=O)N/N=C/c3ccc(N(C)C)cc3)[nH]c2-c2ccc(OC)cc2)cc1`, the TGI is over 100 µM.

Take `COc1cccc2c(=O)oc(-c3ccc(C(C)(C)C)cc3)nc12`: the TGI is over 100 µM.

Turning to `COc1ccc2c(c1)OCC1Cc3ccccc3OC21` (configuration not stated), the TGI was over 100 µM.

As for `COC(=O)C1CCC(=O)N1C(c1ccc(OC)cc1)c1ccc2c(c1)OCO2` (configuration not stated), the TGI was over 100 µM.

As to `CCOC(=O)c1cn2c(nc1=O)N[C@H]1CCCC[C@@H]12`, the TGI was over 100 µM.

For the compound `CCC1(CC)C(=O)NN(C(=O)c2ccccc2)C1=O`, the TGI was over 100 µM.

`CCNC(=O)Cc1nc2c(N)ncnc2n1C1OC(CO)C(O)C1O` (configuration not stated) yielded a TGI of over 100 µM.

The compound `Cc1cc(C(=O)CCCCOc2ccc(C3=NCCO3)cc2)c(C)n1C` registered a TGI of over 100 µM.

`[O-][n+]1ccccc1Sc1nc(Sc2cccc[n+]2[O-])nc(Sc2cccc[n+]2[O-])n1` returned a TGI of 5.81 µM.

A further assay has as its system RXF 393 renal. Description: inhibition of tumour cell growth, NCI panel, 48 h.
On to `NS(=O)(=O)c1cc2c(cc1Cl)NC(CCC(=O)O)=NS2(=O)=O`, for which the TGI was over 100 µM.

The compound `CCOC(=O)c1nc2c(nc1C(=O)OCC)C(=O)c1ccccc1C2=O` gave a TGI of 2.81 µM.

For the compound `Cc1ccc2c(c1)C(=O)C1(Cc3ccccc3C1=O)C2` (configuration not stated), the TGI is over 100 µM.

As for `CC(=O)Nc1nc(C#N)[nH]c1C#N`, the TGI is over 100 µM.

In turn, `O=C(O)/C=C(/C(=O)O)C12CCN3CC4=CCOC5CC(=O)NC1C5C4CC32` (configuration not stated) displayed a TGI of over 100 µM.

`Cc1c(S(=O)(=O)c2ccccc2)c(N)n(CCN(C)C)c1C` returned a TGI of over 100 µM.

As to `CS(=O)c1ncc2c(n1)-c1ccccc1OC2` (configuration not stated), the TGI was over 100 µM.

`O=[N+]([O-])c1ccc(Oc2c(Cl)cc(S(=O)(=O)/N=C(\NO)Nc3ccc(Cl)cc3)cc2Cl)cc1`: the TGI worked out at 29.9 µM.

`O=c1[nH]c(=O)n(C2OC(CO)C(O)C2O)c2nc(-c3ccc(-c4ccccc4)cc3)cnc12` (configuration not stated): the TGI was over 100 µM.

For the origin of these results see PubChem BioAssay (NCI).
